According to the supplement of paper PMC10307832:

What was measured:
Assay in all cases: relative viability (nuclei count vs DMSO), 5 days (fraction); higher = more cells survive
[1] = compound: CC1=CC(=NN1)NC2=CC(=NC(=N2)/C=C/C3=CC=CC=C3)N4CCN(CC4)C + CCNC(=O)c1noc(-c2cc(C(C)C)c(O)cc2O)c1-c1ccc(CN2CCOCC2)cc1 [Luminespib] (partner 0.01 µM)
Procedure, shortened: (§1)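 The day after seeding in 1536-well plates, lung cancer cell lines were treated by pin tool with a single drug, or with a fixed anchor-drug dose together with five library-drug doses (not always all listed) in √10 steps. After 5 days, a combined fix-and-stain solution (final 0.05% Triton X-100, 1% formaldehyde, 1 ug/ml Hoechst) was added. Nuclei counted on 4× images gave relative viability as treated counts over vehicle counts, reported as the median of duplicate plates.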

[2] = compound: CC1=CC(=NN1)NC2=CC(=NC(=N2)/C=C/C3=CC=CC=C3)N4CCN(CC4)C + Cc1nc(NC(=O)N2CCC[C@H]2C(N)=O)sc1-c1ccnc(C(C)(C)C(F)(F)F)c1 [Alpelisib] (partner 2 µM)
Procedure, shortened: as §1

[3] = compound: CC(C)C[C@H](NC(=O)[C@H](Cc1ccccc1)NC(=O)c1cnccn1)B(O)O [Bortezomib] + C[C@@H](Oc1cc(-c2cnn(C3CCNCC3)c2)cnc1N)c1c(Cl)ccc(F)c1Cl [Crizotinib] (partner 1 µM)
Procedure, shortened: as §1

[4] = compound: CC(C)C[C@H](NC(=O)[C@H](Cc1ccccc1)NC(=O)c1cnccn1)B(O)O [Bortezomib] + COc1cc2c(Oc3ccc(NC(=O)C4(C(=O)Nc5ccc(F)cc5)CC4)cc3F)ccnc2cc1OCCCN1CCOCC1 [Foretinib] (partner 0.25 µM)
Procedure, shortened: as §1

Row | Cell Line | relative viability ([1]; first compound 0.08 µM) | relative viability ([1]; first compound 0.253 µM) | relative viability ([1]; first compound 0.8 µM) | relative viability ([1]; first compound 2.53 µM) | relative viability ([1]; first compound 8 µM) | relative viability ([2]; first compound 0.08 µM) | relative viability ([2]; first compound 0.253 µM) | relative viability ([2]; first compound 0.8 µM) | relative viability ([2]; first compound 2.53 µM) | relative viability ([2]; first compound 8 µM) | relative viability ([3]; first compound 0.0002 µM) | relative viability ([3]; first compound 0.000632 µM) | relative viability ([3]; first compound 0.002 µM) | relative viability ([3]; first compound 0.006325 µM) | relative viability ([3]; first compound 0.02 µM) | relative viability ([4]; first compound 0.0002 µM) | relative viability ([4]; first compound 0.000632 µM) | relative viability ([4]; first compound 0.002 µM) | relative viability ([4]; first compound 0.006325 µM) | relative viability ([4]; first compound 0.02 µM)
1 | HCC-44 | 1.04 | 1.53 | 0.993 | 0.842 | 0.164 | 0.784 | 0.879 | 0.675 | 0.281 | 0.0774 | 0.816 | 0.842 | 0.839 | 0.116 | 0.153 |  |  |  |  | 
2 | HCC-78 |  |  |  |  |  | 0.315 | 0.371 | 0.295 | 0.275 | 0.117 | 0.365 | 0.328 | 0.299 | 0.148 | 0.174 | 0.505 | 0.577 | 0.492 | 0.432 | 0.254
3 | HCC-366 |  |  |  |  |  | 0.376 | 0.646 | 0.363 | 0.0741 | 0.0115 | 0.522 | 0.682 | 0.598 | 0.275 | 0.0107 | 0.917 | 0.889 | 1.01 | 0.627 | 0.0395
4 | HCC-827 | 0.577 | 0.673 | 0.587 | 0.441 | 0.236 | 0.934 | 0.984 | 1.02 | 0.874 | 0.475 | 0.915 | 0.837 | 0.783 | 0.251 | 0.116 | 1.11 | 1.01 | 0.693 | 0.113 | 0.0926
5 | HOP-62 | 0.953 | 0.966 | 0.888 | 0.849 | 0.35 | 0.937 | 1.09 | 0.931 | 0.942 | 0.164 |  | 1.01 | 0.35 | 0.235 | 0.048 | 0.972 | 1.07 | 0.863 | 0.134 | 0.0751
6 | IA-LM |  |  |  |  |  | 0.737 | 0.799 | 0.782 | 0.461 | 0.221 | 0.996 | 0.699 | 0.559 | 0.0382 | 0.0338 | 1.26 | 1.1 | 1.16 | 0.0393 | 0.0142
7 | LC-2-ad | 1.11 | 1.23 | 0.693 | 0.611 | 0.204 | 0.861 | 0.781 | 0.714 | 0.0868 | 0.0702 |  | 0.476 | 0.403 | 0.291 | 0.19 | 0.913 | 0.899 | 0.814 | 0.244 | 0.203
8 | LCLC-97TM1 | 0.806 | 0.796 | 0.67 | 0.341 | 0.0891 | 0.225 | 0.288 | 0.191 | 0.146 | 0.111 | 0.4 | 0.329 | 0.111 | 0.114 | 0.118 | 0.906 | 0.929 | 0.721 | 0.242 | 0.151
9 | LCLC-103H | 0.912 | 1.03 | 0.876 | 0.814 | 0.269 | 0.917 | 1.01 | 1.07 | 0.804 | 0.441 | 1.04 | 1.04 | 0.997 | 0.756 | 0.207 | 0.679 | 0.698 | 0.268 | 0.162 | 0.13
10 | LK-2 | 0.174 | 0.175 | 0.226 | 0.16 | 0.151 | 1.1 | 0.668 | 0.966 | 0.605 | 0.211 |  | 0.243 | 0.277 | 0.207 | 0.222 | 0.982 | 1.39 | 1.12 | 0.161 | 0.165
11 | LOU-NH91 | 0.391 | 0.402 | 0.322 | 0.299 | 0.228 | 0.68 | 0.816 | 0.762 | 0.61 | 0.404 | 0.749 | 0.708 | 0.342 | 0.314 | 0.319 | 0.863 | 0.867 | 0.328 | 0.258 | 0.243
12 | NCI-H522 | 0.957 | 0.995 | 1.15 | 0.845 | 0.507 |  |  |  |  |  |  |  |  |  |  |  |  |  |  | 
13 | NCI-H1299 |  |  |  |  |  | 1.06 | 1.08 | 1.04 | 1.1 | 0.605 | 0.943 | 0.965 | 0.969 | 0.39 | 0.152 | 1.09 | 1.06 | 1.17 | 0.416 | 0.121
14 | NCI-H1395 | 0.782 | 0.687 | 0.699 | 0.401 | 0.293 | 1 | 1.07 | 1.03 | 0.602 | 0.289 |  |  |  |  |  | 1.01 | 0.927 | 0.759 | 0.341 | 0.328
15 | NCI-H1623 | 0.579 | 0.493 | 0.48 | 0.494 | 0.305 |  |  |  |  |  |  |  |  |  |  | 0.831 | 0.992 | 0.803 | 0.473 | 0.344
16 | NCI-H1650 | 0.19 | 0.184 | 0.206 | 0.203 | 0.183 |  |  |  |  |  | 0.973 | 0.93 | 0.158 | 0.124 | 0.147 | 1.19 | 1.15 | 0.223 | 0.16 | 0.164
17 | NCI-H1703 |  |  |  |  |  | 0.302 | 0.32 | 0.205 | 0.128 | 0.0994 | 0.561 | 0.495 | 0.133 | 0.101 | 0.081 | 0.324 | 0.342 | 0.211 | 0.153 | 0.176
18 | NCI-H1792 | 0.407 | 0.375 | 0.412 | 0.319 | 0.122 | 0.648 | 0.8 | 0.726 | 0.475 | 0.213 | 0.893 | 0.974 | 0.952 | 0.933 | 0.729 |  |  |  |  | 
19 | NCI-H1793 | 0.16 | 0.184 | 0.151 | 0.136 | 0.116 | 0.679 | 0.758 | 0.654 | 0.398 | 0.124 |  |  |  |  |  | 0.611 | 0.617 | 0.666 | 0.512 | 0.155
20 | NCI-H2342 | 0.543 | 0.699 | 0.705 | 0.546 | 0.536 |  |  |  |  |  |  |  |  |  |  | 1.02 | 0.945 | 0.829 | 0.929 | 0.34
21 | SW 900 | 0.164 | 0.136 | 0.159 | 0.168 | 0.11 |  |  |  |  |  |  |  |  |  |  | 0.87 | 0.743 | 0.155 | 0.119 | 0.126
